# Test results: patent US9573907B2, “2, 4-pyrimidine derivatives and use thereof” (SNU R&DB FOUNDATION, priority 2009, dated 2017)
# “Also recorded” adds a separate entry of the source.
# How the values were obtained:
# [1] = test system: HL-60 cell lines; experiment: FACS analysis of gp96 on cell surface of HL-60 cell lines; type: cell-based; conditions: 1 mM, 24 hours
# Procedure: FIG. 35 is a graph showing an FACS analysis result using gp96 antibody, on the amount of gp96 protein existing on a cell surface, when HL-60 cell lines were treated with a 2,4-pyrimidine derivatives at a concentration of 1 mM for 24 hours.
# Also, HL-60 cell lines were treated with a 2,4-pyrimidine derivative at a concentration of 1 mM for 24 hours, and the amount of gp96 protein existing on a cell surface was analyzed through flow cytometry (FACS) using gp96 antibody.
# [2] = biological target: interaction of gp96 and AIMP1 (Mus musculus, UniProt P08113); experiment: ELISA assay of gp96-AIMP1 interaction; type: binding, murine
# Chain of interaction of gp96 and AIMP1 (P08113 22-802): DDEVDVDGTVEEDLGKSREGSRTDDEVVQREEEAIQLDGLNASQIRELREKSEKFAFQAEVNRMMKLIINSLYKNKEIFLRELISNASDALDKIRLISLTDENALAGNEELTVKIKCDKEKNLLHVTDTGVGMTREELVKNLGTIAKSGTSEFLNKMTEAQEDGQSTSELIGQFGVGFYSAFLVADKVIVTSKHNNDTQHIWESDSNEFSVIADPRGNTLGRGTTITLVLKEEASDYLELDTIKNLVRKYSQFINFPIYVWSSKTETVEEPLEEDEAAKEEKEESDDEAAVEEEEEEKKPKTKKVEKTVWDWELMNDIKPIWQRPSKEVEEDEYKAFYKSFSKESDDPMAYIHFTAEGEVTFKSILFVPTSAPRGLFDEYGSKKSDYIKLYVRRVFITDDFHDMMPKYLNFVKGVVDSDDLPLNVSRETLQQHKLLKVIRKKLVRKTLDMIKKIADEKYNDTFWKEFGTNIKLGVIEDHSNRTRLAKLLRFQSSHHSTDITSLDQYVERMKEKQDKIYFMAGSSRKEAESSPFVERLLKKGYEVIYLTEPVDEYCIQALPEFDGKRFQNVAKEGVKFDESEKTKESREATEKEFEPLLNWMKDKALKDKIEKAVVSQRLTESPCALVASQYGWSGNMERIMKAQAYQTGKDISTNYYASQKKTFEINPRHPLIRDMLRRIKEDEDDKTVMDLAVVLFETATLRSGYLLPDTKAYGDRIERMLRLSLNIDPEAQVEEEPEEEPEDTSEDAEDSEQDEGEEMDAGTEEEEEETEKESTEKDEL
# Procedure: FIGS. 1 to 9 represent suppression of cell surface gp96 by GPM1 reduces DC maturation and B220^+ population in gp96tm transgenic mice. (FIG. 1) Chemical structure of GPM1 (Formula 2) and negative control (NC1, Formula 16) used in this study. (FIG. 2) The dose-dependent effect of GPM1 or NC1 on the AIMP1-gp96 interaction using ELISA method as described. The indicated concentrations of the two compounds and biotin-conjugated murine gp96 were added to AIMP1 coated on the surface of microtiter wells, and gp96 bound to AIMP1 was detected with strepavidin-conjugated peroxidase. (FIG. 3) The binding of GPM1 to gp96 was examined by surface plasmon resonance (SPR). GPM1 at the indicated concentrations was injected to immobilized gp96 and the binding was measured using Biacore 3000. The response data were processed using data from a reference surface and buffer injections. Each concentration was tested in triplicate. (FIG. 4) RAW24.7 cells were treated with 10 μM GPM1 for 24 h. Cell lysates were immunoprecipitated with control IgG or anti-gp96 antibody and the immunoprecipitated proteins were immunoblotted with anti-KDELR1, antiAIMP1 and gp96 antibodies. WCL means whole cell lysate. (FIG. 5) Splenocytes isolated from C57BL/6 mice were treated with vehicle (5% DMSO in PBS), GPM1, or NC1 (10 μM, 24 h), stained for cell surface gp96, and followed by flow cytometry. (FIG. 6) AIMP1^+/+ or AIMP1^−/− mouse splenocytes (2×10^5 cells) were treated with vehicle, GPM1, or NC1 (10 μM, 24 h), fixed, and then co-cultured with WT bone marrow-derived DCs (1×10^4 cells) for 16 h. TNFα secreted from BMDCs was quantified by ELISA. (FIG. 7) Percentage of gp96^+ MHC class II^+ cell population in splenocytes from gp96tm transgenic female mice treated with vehicle (control) (n=9), GPM1 (n=9), and dexamethasone (n=7) at 30 mg/kg. (FIG. 8) Cell surface ICOSL of CD11b^+CD11c^+ (myeloid DCs), CD11b^−CD11c^+ (lymphoid DCs), and CD11b^+CD11c^− (macrophages) cell populations in splenocytes from gp96tm transgenic female mice treated with vehicle (n=9) and GPM1 (n=9) at 30 mg/kg. (FIG. 9) Percentage of B220^+, MHC class II^+, CD4^+, CD8^+, CD4 and CD8 double negative cell populations in splenocytes from gp96tm transgenic female mice treated with vehicle (n=9), GPM1 (n=9), and dexamethasone (n=7) at 30 mg/kg. Student t-test P values comparing GPM1-treated mice with control are indicated.
# 96-well plates (Maxisorp., F96; Nunc) were coated with 500 ng/well AIMP1 in PBS (pH 7.4). After washing, the remaining sites were blocked with PBS containing 1% BSA for 1 h. Binding of 10 ng/well biotin-conjugated gp96 was performed in Tris buffer (25 mM Tris, 10 mM NaCl and 0.4% Triton X-100). Each of the 6,580 compounds was added to the well at 100 nM and the plates were washed and incubated with HRP conjugated streptavidin in PBS containing 0.1% BSA and 0.1% Tween 20 for 30 min. The plates were washed, and then substrate was added to each well. The absorbance was monitored at 450 nm.
# To identify chemicals that can affect membrane translocation of gp96, the present inventors employed the interaction of gp96 with AIMP1 as the screening target. For this screening, the present inventors chose 6,482 chemicals with different pharmacophore representing 150,000 different chemicals deposited in Korea Chemical Bank and identified the compounds that can inhibit the interaction of the two proteins. For the screening, the present inventors set up a modified ELISA method using recombinant AIMP1 and gp96 proteins as described in Experimental methods. Each of the tested compounds gave different effect on the interaction of the two proteins (FIG. 19). And the present inventors have selected 12 compounds that inhibited the interaction more than 95% of the control at 0.1 μM (Table 1). The present inventors obtained 1251 additional compounds derived from these 12 initial hits and tested them again for their activities against the gp96-AIMP1 interaction.
# [3] = test system: cell surface gp96 of splenocytes isolated from C57BL/6 mice; experiment: Flow cytometry of cell surface gp96 on splenocytes; type: cell-based; conditions: 10 μM, 24 h
# Procedure: FIGS. 1 to 9 represent suppression of cell surface gp96 by GPM1 reduces DC maturation and B220^+ population in gp96tm transgenic mice. (FIG. 1) Chemical structure of GPM1 (Formula 2) and negative control (NC1, Formula 16) used in this study. (FIG. 2) The dose-dependent effect of GPM1 or NC1 on the AIMP1-gp96 interaction using ELISA method as described. The indicated concentrations of the two compounds and biotin-conjugated murine gp96 were added to AIMP1 coated on the surface of microtiter wells, and gp96 bound to AIMP1 was detected with strepavidin-conjugated peroxidase. (FIG. 3) The binding of GPM1 to gp96 was examined by surface plasmon resonance (SPR). GPM1 at the indicated concentrations was injected to immobilized gp96 and the binding was measured using Biacore 3000. The response data were processed using data from a reference surface and buffer injections. Each concentration was tested in triplicate. (FIG. 4) RAW24.7 cells were treated with 10 μM GPM1 for 24 h. Cell lysates were immunoprecipitated with control IgG or anti-gp96 antibody and the immunoprecipitated proteins were immunoblotted with anti-KDELR1, antiAIMP1 and gp96 antibodies. WCL means whole cell lysate. […] TNFα secreted from BMDCs was quantified by ELISA. […]
SMILES,amount of gp96 protein existing on a cell surface [1],also measured
"COC(=O)C(C)(C)Oc1nc(OC)cc(OC)n1 [KR-S-013, 2-(4,6-Dimethoxy-pyrimidin-2-yloxy)-2-methyl-propionic acid methyl ester]",better effects than KR-S-015,
"COC(=O)CC(C)Oc1nc(OC)cc(OC)n1 [KR-S-014, D-3-(4,6-Dimethoxy-pyrimidin-2-yloxy)-butyric acid methyl ester]",better effects than KR-S-015,
"COc1cc(OC)nc(OC(C(=O)O)c2ccccc2)n1 (stereo not shown) [KR-S-017, (4,6-Dimethoxy-pyrimidin-2-yloxy)-phenyl-acetic acid]",better effects than KR-S-015,
"CCCCNC(=O)C(Oc1nc(OC)cc(OC)n1)c1ccccc1 (stereo not shown) [KR-S-020, N-Butyl-2-(4,6-dimethoxy-pyrimidin-2-yloxy)-2-phenyl-acetamide]",better effects than KR-S-015,
"COc1cc(OC)nc(O[C@H](C(=O)O)C(C)C)n1 [KR-S-022, L-2-(4,6-Dimethoxy-pyrimidin-2-yloxy)-3-methyl-butyric acid]",better effects than KR-S-015,
"COc1cc(OC)nc(O[C@H](C)C(=O)O)n1 [KR-S-023, D-2-(4,6-Dimethoxy-pyrimidin-2-yloxy)-propionic acid]","better effects than KR-S-015; also recorded: better than isopropyl (KR-S-009, KR-S-010)",
"COc1cc(OC)nc(O[C@@H](C)C(=O)O)n1 [KR-S-024, L-2-(4,6-Dimethoxy-pyrimidin-2-yloxy)-propionic acid]","better effects than KR-S-015; also recorded: better than isopropyl (KR-S-009, KR-S-010)",
"COc1cc(OC)nc(OC(Cc2ccccc2)C(=O)O)n1 (stereo not shown) [NC1, 2-(4,6-dimethoxypyrimidin-2-yloxy)-3-phenylpropanoic acid, reference compound]",,inhibition on the interaction of gp96 and AIMP1 [2]: 4%; dose-dependent effect on the interaction of gp96 and AIMP1 ([2]; ELISA): no effect; surface gp96 of mouse splenocytes [3]: not
